Patent US9206130B2, “Quinoline derivatives as AXL kinase inhibitors” (Max-Planck-Gesellschaft zur Förderung der Wissenschaften …, priority 2008, dated 2015)
pIC50: −log10 of the molar value.

Experiments:
[1] = molecular target: T1, wild type AXL (wtAXL) receptor tyrosine kinase (Homo sapiens, UniProt P30530); assay: NIH-3T3-AXL cellular tyrosine kinase assay (inhibition of AXL phosphorylation); type: cell-based; settings: AXL phosphorylation in NIH-3T3-AXL (clone 22) cells, serum-depleted, 2 h with compound, immunoprecipitation / anti-phosphotyrosine blot
T1 construct: WtAXL cDNA was cloned into vector pLXSN(ESK) and transfected into Phoenix E packaging cells; expressed in transfected cells; host or cells: NIH3T3 N7 mouse fibroblasts, retrovirally infected (clone 22)
T1 sequence (P30530 26-894): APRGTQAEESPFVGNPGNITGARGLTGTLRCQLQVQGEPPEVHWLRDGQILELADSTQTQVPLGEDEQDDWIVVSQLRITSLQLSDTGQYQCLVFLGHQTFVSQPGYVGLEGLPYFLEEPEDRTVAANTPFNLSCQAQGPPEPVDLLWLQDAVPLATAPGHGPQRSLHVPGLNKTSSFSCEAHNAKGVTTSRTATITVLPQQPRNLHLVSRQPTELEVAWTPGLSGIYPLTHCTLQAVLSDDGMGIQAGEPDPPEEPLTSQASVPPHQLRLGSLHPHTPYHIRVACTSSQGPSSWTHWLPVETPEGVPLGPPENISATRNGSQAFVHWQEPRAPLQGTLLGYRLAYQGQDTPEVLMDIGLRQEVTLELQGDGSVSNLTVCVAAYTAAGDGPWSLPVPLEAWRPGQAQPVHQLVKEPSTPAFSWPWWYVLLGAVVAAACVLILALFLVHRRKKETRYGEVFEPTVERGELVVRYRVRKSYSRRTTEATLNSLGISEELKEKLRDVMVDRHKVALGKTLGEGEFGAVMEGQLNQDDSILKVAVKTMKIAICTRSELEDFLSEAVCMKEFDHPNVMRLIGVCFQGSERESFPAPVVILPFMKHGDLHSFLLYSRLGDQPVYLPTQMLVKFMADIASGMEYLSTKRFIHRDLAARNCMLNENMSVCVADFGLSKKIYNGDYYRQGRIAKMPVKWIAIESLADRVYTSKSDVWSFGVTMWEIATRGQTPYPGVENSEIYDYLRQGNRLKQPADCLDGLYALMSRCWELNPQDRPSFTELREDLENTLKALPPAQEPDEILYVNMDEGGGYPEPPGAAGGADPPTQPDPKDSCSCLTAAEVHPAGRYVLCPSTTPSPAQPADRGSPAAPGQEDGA
Method in brief: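 NIH3T3 clones stably expressing human wtAXL (puromycin-selected) were exposed to serially diluted compounds for 2 h. AXL was immunoprecipitated from lysates with anti-AXL antibody, and phosphorylation detected by anti-phosphotyrosine (4G10) western blot with ECL.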

| SMILES | pIC50 [1] | melting point |
| --- | --- | --- |
| COc1cc2nccc(Oc3ccc(NS(=O)(=O)c4ccc5c(c4)CC(=O)N5C)cc3)c2cc1OC [Example A85, 1-Methyl-2-oxo-2,3-dihydro-1H-indole-5-sulfonic acid [4-(6,7-dimethoxy-quinolin-4-yloxy)-phenyl]-amide] | < 5.52 | 119 to 122 °C |
| COc1cc2nccc(Oc3ccc(NS(=O)(=O)c4cccc(-c5ccccc5)c4)cc3)c2cc1OC [Example A86, Biphenyl-3-sulfonic acid [4-(6,7-dimethoxy-quinolin-4-yloxy)-phenyl]-amide] | < 6.00 | 197 to 200 °C |
| COc1ccc(S(=O)(=O)Nc2ccc(Oc3ccnc4cc(OC)c(OC)cc34)cc2F)cc1F [Example A88, N-[4-(6,7-Dimethoxy-quinolin-4-yloxy)-2-fluoro-phenyl]-3-fluoro-4-methoxy-benzenesulfonamide] | < 6.00 | 230 to 232 °C |
| COc1cc2nccc(Oc3ccc(NS(=O)(=O)c4cccc(-c5ccccc5)c4)c(C)c3)c2cc1OC [Example A89, Biphenyl-3-sulfonic acid [4-(6,7-dimethoxy-quinolin-4-yloxy)-2-methyl-phenyl]-amide] | 6.35 | 220 to 222 °C |
| COc1cc2nccc(Oc3ccc(NS(=O)(=O)c4cccc(Oc5ccccc5)c4)c(C)c3)c2cc1OC [Example A90, N-[4-(6,7-Dimethoxy-quinolin-4-yloxy)-2-methyl-phenyl]-3-phenoxy-benzenesulfonamide] | < 5.00 | 169 to 170 °C |
| COc1cc2nccc(Oc3ccc(NS(=O)(=O)c4cccc5ccccc45)c(C)c3)c2cc1OC [Example A91, Naphthalene-1-sulfonic acid [4-(6,7-dimethoxy-quinolin-4-yloxy)-2-methyl-phenyl]-amide] | < 5.00 | 233 to 235 °C |
| COc1cc2nccc(Oc3ccc(NS(=O)(=O)c4ccc(-c5ccccc5)cc4)c(C)c3)c2cc1OC [Example A92, Biphenyl-4-sulfonic acid [4-(6,7-dimethoxy-quinolin-4-yloxy)-2-methyl-phenyl]-amide] | < 5.00 | 228 to 230 °C |
| COc1cc2nccc(Oc3ccc(NS(=O)(=O)c4cccc(-c5ncccn5)c4)c(C)c3)c2cc1OC [Example A93, N-[4-(6,7-Dimethoxy-quinolin-4-yloxy)-2-methyl-phenyl]-3-pyrimidin-2-yl-benzenesulfonamide] | < 5.52 | 103 to 105 °C |
| COc1cc2nccc(Oc3ccc(NS(=O)(=O)c4cc5ccccc5s4)c(C)c3)c2cc1OC [Example A94, Benzo[b]thiophene-2-sulfonic acid [4-(6,7-dimethoxy-quinolin-4-yloxy)-2-methyl-phenyl]-amide] | < 5.00 | 255 to 257 °C |
| COc1cc2nccc(Oc3ccc(NS(=O)(=O)c4ccc5c(c4)CC(=O)N5C)c(C)c3)c2cc1OC [Example A95, 1-Methyl-2-oxo-2,3-dihydro-1H-indole-5-sulfonic acid [4-(6,7-dimethoxy-quinolin-4-yloxy)-2-methyl-phenyl]-amide] | < 5.00 | 115 to 116 °C |
| COc1cc2nccc(Oc3ccc(NS(=O)(=O)c4cccc(-c5ccccc5)c4)cc3F)c2cc1OC [Example A97, Biphenyl-3-sulfonic acid [4-(6,7-dimethoxy-quinolin-4-yloxy)-3-fluoro-phenyl]-amide] | 6.27 | 109 to 111 °C |
| COc1cc2nccc(Oc3ccc(NS(=O)(=O)c4cccc(Oc5ccccc5)c4)cc3F)c2cc1OC [Example A98, N-[4-(6,7-Dimethoxy-quinolin-4-yloxy)-3-fluoro-phenyl]-3-phenoxy-benzenesulfonamide] | 6.13 | 197 to 199 °C |
| COc1cc2nccc(Oc3ccc(NS(=O)(=O)c4cc(F)ccc4F)cc3F)c2cc1OC [Example A99, N-[4-(6,7-Dimethoxy-quinolin-4-yloxy)-3-fluoro-phenyl]-2,5-difluoro-benzenesulfonamide] | 6.74 | 232 to 234 °C |
| COc1cc2nccc(Oc3ccc(NS(=O)(=O)c4cccc5ccccc45)cc3F)c2cc1OC [Example A100, Naphthalene-1-sulfonic acid [4-(6,7-dimethoxy-quinolin-4-yloxy)-3-fluoro-phenyl]-amide] | 6.13 | 118 to 120 °C |
| COc1cc2nccc(Oc3ccc(NS(=O)(=O)c4cccc(-c5ncccn5)c4)cc3F)c2cc1OC [Example A101, N-[4-(6,7-Dimethoxy-quinolin-4-yloxy)-3-fluoro-phenyl]-3-pyrimidin-2-yl-benzenesulfonamide] | < 6.00 | 105 to 107 °C |
| COc1cc2nccc(Oc3ccc(NS(=O)(=O)c4cccc(-c5ncccn5)c4)c(F)c3)c2cc1OC [Example A102, N-[4-(6,7-Dimethoxy-quinolin-4-yloxy)-2-fluoro-phenyl]-3-pyrimidin-2-yl-benzenesulfonamide] | < 6.00 | 137 to 140 °C |
| COc1cc2nccc(Oc3ccc(NS(=O)(=O)c4cc(Cl)cc(Cl)c4OC)cc3F)c2cc1OC [Example A106, 3,5-Dichloro-N-[4-(6,7-dimethoxy-quinolin-4-yloxy)-3-fluoro-phenyl]-2-methoxy-benzenesulfonamide] | 6.12 | 155 to 158 °C |
| COc1cc2nccc(Oc3ccc(NS(=O)(=O)c4ccc(-c5ccccc5)cc4)cc3F)c2cc1OC [Example A107, Biphenyl-4-sulfonic acid [4-(6,7-dimethoxy-quinolin-4-yloxy)-3-fluoro-phenyl]-amide] | < 5.00 | 167 to 171 °C |
| COc1cc2nccc(Oc3ccc(NS(=O)(=O)c4csc5ccccc45)cc3F)c2cc1OC [Example A108, Benzo[b]thiophene-3-sulfonic acid [4-(6,7-dimethoxy-quinolin-4-yloxy)-3-fluoro-phenyl]-amide] | < 6.00 | 191 to 193 °C |
| COc1cc(S(=O)(=O)Nc2ccc(Oc3ccnc4cc(OC)c(OC)cc34)c(F)c2)ccc1F [Example A109, N-[4-(6,7-Dimethoxy-quinolin-4-yloxy)-3-fluoro-phenyl]-4-fluoro-3-methoxy-benzenesulfonamide] | < 6.00 | 202 to 204 °C |
| COc1cc2nccc(Oc3ccc(NS(=O)(=O)c4ccc(Cl)cc4F)cc3F)c2cc1OC [Example A110, 4-Chloro-N-[4-(6,7-dimethoxy-quinolin-4-yloxy)-3-fluoro-phenyl]-2-fluoro-benzenesulfonamide] | 5.93 | 99 to 101 °C |
| COc1cc2nccc(Oc3ccc(NS(=O)(=O)c4cc(Cl)cc(Cl)c4OC)c(C)c3)c2cc1OC [Example A111, 3,5-Dichloro-N-[4-(6,7-dimethoxy-quinolin-4-yloxy)-2-methyl-phenyl]-2-methoxy-benzenesulfonamide] | < 5.52 | 159 to 162 °C |
| COc1cc2nccc(Oc3ccc(NS(=O)(=O)c4ccccc4OC(F)(F)F)c(C)c3)c2cc1OC [Example A112, N-[4-(6,7-Dimethoxy-quinolin-4-yloxy)-2-methyl-phenyl]-2-trifluoromethoxy-benzenesulfonamide] | < 5.52 | 230 to 232 °C |
